Results on five compounds are retold here after PubChem BioAssay AID1259407 (Chemical Carcinogenesis Research Information System (CCRIS), 2018).

Molecules are shown by their SMILES. The source made the active and inactive calls. No rule for the calls is given here.

The subject of this series is CCRIS mutagenicity, Ames/micronucleus/aberration tests. Nature of the series: CCRIS mutagenicity studies.
Setting [1] is: Test System: AMES SALMONELLA TYPHIMURIUM, Strain/Indicator: TA98, Metabolic Activation: NONE, Method: STANDARD PLATE.
The mark [2] stands for this setting: Test System: AMES SALMONELLA TYPHIMURIUM, Strain/Indicator: TA98, Metabolic Activation: RAT, LIVER, S-9, AROCLOR 1254, Method: STANDARD PLATE.
[3] abbreviates: Test System: AMES SALMONELLA TYPHIMURIUM, Strain/Indicator: TA100, Metabolic Activation: NONE, Method: STANDARD PLATE.
Setting [4] is: Test System: AMES SALMONELLA TYPHIMURIUM, Strain/Indicator: TA100, Metabolic Activation: RAT, LIVER, S-9, AROCLOR 1254, Method: STANDARD PLATE.
Where [5] appears, read: Test System: AMES SALMONELLA TYPHIMURIUM, Strain/Indicator: TA1535, Metabolic Activation: NONE, Method: STANDARD PLATE.
Where [6] appears, read: Test System: AMES SALMONELLA TYPHIMURIUM, Strain/Indicator: TA1537, Metabolic Activation: NONE, Method: STANDARD PLATE.
Setting [7] is: Test System: E. COLI, Strain/Indicator: WP2 UVRA, Metabolic Activation: NONE, Method: STANDARD PLATE.

As to `CC(=O)O[C@H]1C[C@@H]2C(COC(=O)CC(C)C)=CO[C@@H](OC(=O)CC(C)C)[C@@H]2[C@@]12CO2`, the mutagenic call reads like this: under setting [1], “inactive; negative”; under setting [2], “inactive; negative”; under setting [3], “inactive; negative”; under setting [4], “active; positive”; under setting [5], “inactive; negative”; (Test System: AMES SALMONELLA TYPHIMURIUM, Strain/Indicator: TA1535, Metabolic Activation: RAT, LIVER, S-9, AROCLOR 1254, Method: STANDARD PLATE) “inactive; negative”. For the same compound, the mutagenic call under setting [6] is “inactive; negative”; the mutagenic call (Test System: AMES SALMONELLA TYPHIMURIUM, Strain/Indicator: TA1537, Metabolic Activation: RAT, LIVER, S-9, AROCLOR 1254, Method: STANDARD PLATE) was “inactive; negative”; the mutagenic call (Test System: E. COLI, Strain/Indicator: WP2, Metabolic Activation: NONE, Method: STANDARD PLATE) is “inactive; negative”; the mutagenic call (Test System: E. COLI, Strain/Indicator: WP2, Metabolic Activation: RAT, LIVER, S-9, AROCLOR 1254, Method: STANDARD PLATE) was “active; positive”; the mutagenic call under setting [7] was “active; positive”; the mutagenic call (Test System: E. COLI, Strain/Indicator: WP2 UVRA, Metabolic Activation: RAT, LIVER, S-9, AROCLOR 1254, Method: STANDARD PLATE) is “active; positive”.
As for `Cc1cc(C)cc(C)c1`, the mutagenic call (Test System: AMES SALMONELLA TYPHIMURIUM, Strain/Indicator: TA97A, Metabolic Activation: NONE, Method: STANDARD PLATE) is “inactive; negative”; the mutagenic call (Test System: AMES SALMONELLA TYPHIMURIUM, Strain/Indicator: TA97A, Metabolic Activation: RAT, LIVER, S-9, AROCLOR 1254, Method: STANDARD PLATE) was “inactive; negative”; the mutagenic call under setting [1] is “inactive; negative”; the mutagenic call under setting [2] was “inactive; negative”; the mutagenic call under setting [3] was “inactive; negative”; the mutagenic call under setting [4] was “inactive; negative”. The mutagenic call was “inactive; negative” (Test System: AMES SALMONELLA TYPHIMURIUM, Strain/Indicator: TA102, Metabolic Activation: NONE, Method: STANDARD PLATE) and “inactive; negative” (Test System: AMES SALMONELLA TYPHIMURIUM, Strain/Indicator: TA102, Metabolic Activation: RAT, LIVER, S-9, AROCLOR 1254, Method: STANDARD PLATE).
As for `CC(C)=CCC/C(C)=C/CC/C(C)=C/C(=O)OCC(=O)[C@@]1(O)CC[C@H]2[C@@H]3CCC4=CC(=O)C=C[C@]4(C)[C@H]3[C@@H](O)C[C@@]21C`, the mutagenic call is “inactive; negative” under setting [1]; “inactive; negative” (Test System: AMES SALMONELLA TYPHIMURIUM, Strain/Indicator: TA98, Metabolic Activation: RAT, LIVER, S-9, PHENOBARBITAL AND 5,6-BENZOFLAVONE, Method: STANDARD PLATE); “inactive; negative” under setting [3]; “inactive; negative” (Test System: AMES SALMONELLA TYPHIMURIUM, Strain/Indicator: TA100, Metabolic Activation: RAT, LIVER, S-9, PHENOBARBITAL AND 5,6-BENZOFLAVONE, Method: STANDARD PLATE); “inactive; negative” under setting [5]; “inactive; negative” (Test System: AMES SALMONELLA TYPHIMURIUM, Strain/Indicator: TA1535, Metabolic Activation: RAT, LIVER, S-9, PHENOBARBITAL AND 5,6-BENZOFLAVONE, Method: STANDARD PLATE). For the same compound, the mutagenic call runs as follows: under setting [6], “inactive; negative”; (Test System: AMES SALMONELLA TYPHIMURIUM, Strain/Indicator: TA1537, Metabolic Activation: RAT, LIVER, S-9, PHENOBARBITAL AND 5,6-BENZOFLAVONE, Method: STANDARD PLATE) “inactive; negative”; under setting [7], “inactive; negative”; (Test System: E. COLI, Strain/Indicator: WP2 UVRA, Metabolic Activation: RAT, LIVER, S-9, PHENOBARBITAL AND 5,6-BENZOFLAVONE, Method: STANDARD PLATE) “inactive; negative”.
For the compound `Cc1cccc(C)c1[N+](=O)[O-]`, the mutagenic call was “inactive; negative” (Test System: AMES SALMONELLA TYPHIMURIUM, Strain/Indicator: TA98, Metabolic Activation: NONE, Method: PREINCUBATION); “inactive; negative” (Test System: AMES SALMONELLA TYPHIMURIUM, Strain/Indicator: TA98, Metabolic Activation: RAT, LIVER, S-9, KANECHLOR 500, Method: PREINCUBATION); “inactive; negative” (Test System: AMES SALMONELLA TYPHIMURIUM, Strain/Indicator: TA100, Metabolic Activation: NONE, Method: PREINCUBATION); “inactive; negative” (Test System: AMES SALMONELLA TYPHIMURIUM, Strain/Indicator: TA100, Metabolic Activation: RAT, LIVER, S-9, KANECHLOR 500, Method: PREINCUBATION).
As for `CCOP(=S)(OCC)Oc1ccc(S(C)=O)cc1` (stereo not given), the mutagenic call (End Point: In vivo micronucleus, Species: Mouse, Strain/Sex: NMRI/Male and female) was “inactive; negative”.
